Reference: ChEMBL document CHEMBL5500425, “Designing Small Molecule PI3Kγ Inhibitors: A Review of Structure-Based Methods and Computational Approaches” (J Med Chem, 2024)
Values belong to the compound of their own block, whether it stands above or below them.

Columns and labels:
[1] = Clearance in Beagle Dog at 1 micromol/kg, iv; type: ADME, Canis lupus familiaris; conditions: in vivo, dose 1 µmol/kg
[2] = Oral bioavailability in Beagle dog at 2 mg/kg; type: ADME, organism-based, Canis lupus familiaris; conditions: in vivo
[3] = biological target: T1, Phosphatidylinositol 4,5-bisphosphate 3-kinase catalytic subunit delta isoform (Homo sapiens, UniProt O00329); experiment: Inhibition of P13Kdelta (unknown origin) in the presence of ATP by scintillation proximity assay
T1 sequence (O00329 whole entry): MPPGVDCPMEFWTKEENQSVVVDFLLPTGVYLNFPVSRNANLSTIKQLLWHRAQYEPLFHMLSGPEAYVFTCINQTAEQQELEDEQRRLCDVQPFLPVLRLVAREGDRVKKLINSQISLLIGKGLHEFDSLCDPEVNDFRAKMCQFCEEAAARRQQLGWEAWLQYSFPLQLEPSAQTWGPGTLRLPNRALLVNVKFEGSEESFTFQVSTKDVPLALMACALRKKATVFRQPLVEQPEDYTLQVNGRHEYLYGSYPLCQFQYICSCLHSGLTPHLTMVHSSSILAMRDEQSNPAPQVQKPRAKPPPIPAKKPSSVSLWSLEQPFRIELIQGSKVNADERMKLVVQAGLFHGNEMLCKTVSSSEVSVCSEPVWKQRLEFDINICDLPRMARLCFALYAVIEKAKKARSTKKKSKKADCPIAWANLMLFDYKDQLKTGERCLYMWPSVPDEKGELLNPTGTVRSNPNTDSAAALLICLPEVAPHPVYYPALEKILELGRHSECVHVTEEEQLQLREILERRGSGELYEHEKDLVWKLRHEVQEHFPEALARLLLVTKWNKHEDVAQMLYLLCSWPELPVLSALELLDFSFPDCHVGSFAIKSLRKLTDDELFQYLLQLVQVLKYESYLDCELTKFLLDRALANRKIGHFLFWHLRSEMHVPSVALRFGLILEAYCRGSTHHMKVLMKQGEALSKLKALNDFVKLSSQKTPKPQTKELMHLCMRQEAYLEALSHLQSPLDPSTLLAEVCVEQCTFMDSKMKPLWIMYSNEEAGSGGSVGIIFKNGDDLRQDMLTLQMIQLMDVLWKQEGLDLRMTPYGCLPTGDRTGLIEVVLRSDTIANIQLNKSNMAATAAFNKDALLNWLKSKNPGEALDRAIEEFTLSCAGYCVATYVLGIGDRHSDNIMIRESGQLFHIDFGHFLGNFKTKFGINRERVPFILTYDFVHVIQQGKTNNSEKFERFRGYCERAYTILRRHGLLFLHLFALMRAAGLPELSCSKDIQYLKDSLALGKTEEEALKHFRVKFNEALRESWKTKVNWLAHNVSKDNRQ

[4] = biological target: T2, Phosphatidylinositol 4,5-bisphosphate 3-kinase catalytic subunit gamma isoform (Homo sapiens, UniProt P48736); experiment: Inhibition of human recombinant PI3Kgamma using phosphatidylinositol as substrate in presence of [gamma33P]ATP by scintillation proximity assay
Target sequence in this assay (P48736 whole entry, looked up, canonical isoform): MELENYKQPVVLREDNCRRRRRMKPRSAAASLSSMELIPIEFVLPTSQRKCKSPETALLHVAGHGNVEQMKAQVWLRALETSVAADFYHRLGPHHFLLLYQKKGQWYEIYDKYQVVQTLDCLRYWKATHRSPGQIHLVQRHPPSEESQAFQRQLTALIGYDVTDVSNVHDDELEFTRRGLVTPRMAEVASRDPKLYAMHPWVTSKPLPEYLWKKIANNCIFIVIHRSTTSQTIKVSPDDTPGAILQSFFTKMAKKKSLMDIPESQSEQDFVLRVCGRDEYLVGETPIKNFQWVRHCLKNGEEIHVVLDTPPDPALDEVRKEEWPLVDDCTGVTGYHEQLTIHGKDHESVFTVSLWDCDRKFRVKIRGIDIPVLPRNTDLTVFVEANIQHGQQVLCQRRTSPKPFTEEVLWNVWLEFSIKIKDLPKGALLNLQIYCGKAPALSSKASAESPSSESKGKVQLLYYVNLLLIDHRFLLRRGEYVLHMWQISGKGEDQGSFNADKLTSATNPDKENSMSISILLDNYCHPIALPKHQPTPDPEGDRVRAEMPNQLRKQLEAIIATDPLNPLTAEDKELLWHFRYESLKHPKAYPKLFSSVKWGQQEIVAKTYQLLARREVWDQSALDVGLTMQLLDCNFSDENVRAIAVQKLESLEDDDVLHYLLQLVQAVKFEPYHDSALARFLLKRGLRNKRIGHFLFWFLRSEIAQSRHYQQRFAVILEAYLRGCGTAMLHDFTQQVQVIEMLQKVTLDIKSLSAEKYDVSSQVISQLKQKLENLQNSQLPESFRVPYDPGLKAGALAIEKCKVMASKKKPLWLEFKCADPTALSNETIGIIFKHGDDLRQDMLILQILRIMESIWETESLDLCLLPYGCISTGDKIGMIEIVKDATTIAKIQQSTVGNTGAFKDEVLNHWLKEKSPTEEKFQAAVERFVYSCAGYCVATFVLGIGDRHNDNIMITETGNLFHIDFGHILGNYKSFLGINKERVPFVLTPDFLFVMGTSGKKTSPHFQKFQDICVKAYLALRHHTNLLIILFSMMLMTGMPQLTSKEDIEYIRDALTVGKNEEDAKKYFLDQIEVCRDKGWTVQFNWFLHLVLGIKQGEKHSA

[5] = biological target: Phosphatidylinositol 4,5-bisphosphate 3-kinase catalytic subunit alpha isoform (Homo sapiens, UniProt P42336); experiment: Inhibition of PI3Kalpha (unknown origin) using […] as substrate preincubated for 10 mins followed by substrate addition by microplate reader analysis
Phosphatidylinositol 4,5-bisphosphate 3-kinase catalytic subunit alpha isoform, sequence (P42336 whole entry, canonical isoform): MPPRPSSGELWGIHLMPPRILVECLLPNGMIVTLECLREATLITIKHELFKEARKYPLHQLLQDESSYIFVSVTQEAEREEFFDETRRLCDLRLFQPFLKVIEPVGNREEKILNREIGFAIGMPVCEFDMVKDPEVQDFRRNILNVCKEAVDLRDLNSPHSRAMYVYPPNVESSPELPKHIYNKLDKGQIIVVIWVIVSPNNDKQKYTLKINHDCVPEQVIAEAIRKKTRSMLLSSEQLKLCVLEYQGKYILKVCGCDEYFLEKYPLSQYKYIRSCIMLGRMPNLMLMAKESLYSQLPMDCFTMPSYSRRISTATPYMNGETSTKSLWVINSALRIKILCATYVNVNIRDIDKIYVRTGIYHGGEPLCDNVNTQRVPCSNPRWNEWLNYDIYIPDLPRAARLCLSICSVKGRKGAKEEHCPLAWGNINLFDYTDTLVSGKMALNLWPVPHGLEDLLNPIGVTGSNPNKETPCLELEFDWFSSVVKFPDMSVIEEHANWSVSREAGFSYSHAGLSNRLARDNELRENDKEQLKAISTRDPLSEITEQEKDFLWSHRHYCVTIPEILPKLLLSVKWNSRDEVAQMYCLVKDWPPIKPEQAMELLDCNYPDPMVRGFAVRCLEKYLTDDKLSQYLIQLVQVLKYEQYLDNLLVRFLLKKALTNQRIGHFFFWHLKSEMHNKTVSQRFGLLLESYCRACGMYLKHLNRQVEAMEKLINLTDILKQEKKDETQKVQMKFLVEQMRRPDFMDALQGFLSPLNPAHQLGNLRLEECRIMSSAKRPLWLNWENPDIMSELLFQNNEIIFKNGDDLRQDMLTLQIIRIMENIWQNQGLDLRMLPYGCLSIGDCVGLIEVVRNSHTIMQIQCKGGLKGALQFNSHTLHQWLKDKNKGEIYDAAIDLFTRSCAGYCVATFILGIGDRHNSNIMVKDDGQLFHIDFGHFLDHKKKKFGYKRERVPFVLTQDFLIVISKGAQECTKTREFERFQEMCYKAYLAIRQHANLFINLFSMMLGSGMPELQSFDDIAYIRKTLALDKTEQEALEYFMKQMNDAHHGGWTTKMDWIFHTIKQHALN

[6] = Oral bioavailability in rat at 10 mg/kg; type: ADME, organism-based; conditions: in vivo
[7] = Inhibition of P13Kalpha (unknown origin) in the presence of ATP by scintillation proximity assay
[8] = biological target: T2, Phosphatidylinositol 4,5-bisphosphate 3-kinase catalytic subunit gamma isoform; experiment: Inhibition of human PI3Kgamma expressed in baculovirus infected Sf21 insect cells by ADP-Glo assay
Target sequence in this assay (P48736 whole entry, canonical isoform): as the sequence (P48736 whole entry, looked up, canonical isoform) above

[9] = biological target: T1, Phosphatidylinositol 4,5-bisphosphate 3-kinase catalytic subunit delta isoform; experiment: Inhibition of human PI3Kdelta expressed in baculovirus infected Sf21 insect cells by ADP-Glo assay
[10] = biological target: T2, Phosphatidylinositol 4,5-bisphosphate 3-kinase catalytic subunit gamma isoform; experiment: Inhibition of PI3Kgamma (unknown origin)
Target sequence in this assay (P48736 whole entry, canonical isoform): as the sequence (P48736 whole entry, looked up, canonical isoform) above

[11] = biological target: T1, Phosphatidylinositol 4,5-bisphosphate 3-kinase catalytic subunit delta isoform; experiment: Inhibition of PI3Kdelta (unknown origin)
[12] = biological target: Phosphatidylinositol 4,5-bisphosphate 3-kinase catalytic subunit beta isoform (Homo sapiens, UniProt P42338); experiment: Inhibition of PI3Kbeta (unknown origin)
Phosphatidylinositol 4,5-bisphosphate 3-kinase catalytic subunit beta isoform, sequence (P42338 whole entry, canonical isoform): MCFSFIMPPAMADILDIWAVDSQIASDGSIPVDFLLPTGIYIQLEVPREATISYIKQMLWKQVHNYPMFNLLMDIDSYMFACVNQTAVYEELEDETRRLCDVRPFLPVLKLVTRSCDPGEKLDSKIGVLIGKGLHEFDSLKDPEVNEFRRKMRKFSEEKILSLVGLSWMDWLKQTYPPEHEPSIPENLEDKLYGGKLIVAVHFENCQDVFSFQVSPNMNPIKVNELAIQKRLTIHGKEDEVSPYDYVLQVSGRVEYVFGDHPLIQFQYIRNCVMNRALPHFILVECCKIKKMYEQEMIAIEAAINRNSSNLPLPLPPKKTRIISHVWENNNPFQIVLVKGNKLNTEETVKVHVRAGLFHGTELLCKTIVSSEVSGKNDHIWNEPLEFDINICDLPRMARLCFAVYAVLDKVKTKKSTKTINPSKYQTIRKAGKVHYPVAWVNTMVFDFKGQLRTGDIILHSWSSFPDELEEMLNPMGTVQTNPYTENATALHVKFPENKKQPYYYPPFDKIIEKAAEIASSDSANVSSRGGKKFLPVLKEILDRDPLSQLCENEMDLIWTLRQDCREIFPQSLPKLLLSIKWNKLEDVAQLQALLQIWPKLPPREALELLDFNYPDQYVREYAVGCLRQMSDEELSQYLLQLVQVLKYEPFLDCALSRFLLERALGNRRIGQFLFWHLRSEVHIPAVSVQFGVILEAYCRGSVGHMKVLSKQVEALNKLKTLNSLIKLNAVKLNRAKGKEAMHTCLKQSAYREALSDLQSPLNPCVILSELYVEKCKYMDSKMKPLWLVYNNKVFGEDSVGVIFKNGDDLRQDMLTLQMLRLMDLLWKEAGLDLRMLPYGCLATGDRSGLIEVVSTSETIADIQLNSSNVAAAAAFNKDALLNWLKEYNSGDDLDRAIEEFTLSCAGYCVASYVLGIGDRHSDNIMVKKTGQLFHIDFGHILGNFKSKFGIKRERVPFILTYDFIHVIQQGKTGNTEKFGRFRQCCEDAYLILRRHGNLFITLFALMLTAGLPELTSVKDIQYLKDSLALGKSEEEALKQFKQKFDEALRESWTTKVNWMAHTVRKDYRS

[13] = Inhibition of P13Kalpha (unknown origin)

clearance [1]: 3.3 mL/min/kg | bioavailability [2]: 82%
SMILES: CC(=O)Nc1nc(C)c(-c2cc3c(c(S(C)(=O)=O)c2)C(=O)N([C@@H](C)C2CC2)C3)s1

IC50 [3]: < 2000 nM | IC50 [4]: ≤ 100 nM
SMILES: Cc1cc(C(O)(CO)C(F)F)ccc1-c1cnc(N)c(C(=O)N2CC[C@H](CO)C2)n1 (stereo partly specified)

IC50 [5]: 172 nM
SMILES: CC1(CCn2nc(-c3ccc(Cl)c(O)c3)c3c(N)ncnc32)COC1

IC50 [4]: 40 nM | bioavailability [6]: 72% | IC50 [7]: 300 nM
SMILES: Cc1ncc(-c2cc(-c3ccc(S(=O)(=O)NCC(C)(C)O)cc3C)cnc2N)o1

IC50 [3]: < 2000 nM
SMILES: Cc1nnc(-c2cc(-c3cc4c(c(S(C)(=O)=O)c3)C(=O)N([C@@H](C)C3CC3)C4)ccn2)[nH]1

IC50 [4]: 24 nM | bioavailability [6]: 23% | IC50 [7]: 110 nM
SMILES: Cc1cc(S(=O)(=O)N[C@H]2CC[C@H](O)CC2)ccc1-c1cnc(N)c(C(=O)C2CC2)n1

IC50 [3]: < 2000 nM
SMILES: Cc1nc(N)c2ncc(-c3cc(C(C)(O)CC(F)(F)F)ccc3C)n2n1 (stereo unspecified)

IC50 [8]: < 250 nM | IC50 [9]: ≥ 5000 nM
SMILES: COc1cncc(-c2ccc3nc(-c4nc5c(C)cccc5[nH]4)oc3c2)c1

IC50 [3]: > 500 nM
SMILES: Clc1ccc(Cn2cc(-c3ccnc(-c4ncc(-c5ccccc5)[nH]4)c3)cn2)cc1

IC50 [10]: < 100 nM | IC50 [11]: < 2000 nM
SMILES: CC(NC(=O)c1c(N)nn2cccnc12)c1cc(Cl)c2c(C#N)ncn2c1N1CCS(=O)(=O)C(C)C1 (stereo unspecified)

IC50 [3]: ≤ 500 nM
SMILES: Cc1cc(S(=O)(=O)N[C@H]2CC[C@H](O)CC2)ccc1-c1cnc2c(N)c(Cl)ccn12

IC50 [12]: > 20000 nM | IC50 [13]: > 20000 nM
SMILES: CC(=O)c1c(C)n(-c2ccc(C)cc2)c2ccc(OCC(O)CNCc3ccc(Cl)cc3)cc12 (stereo unspecified)
